# Experimental data as given in article PMC9295568, “Dual Inhibition of Vacuolar-ATPase and TMPRSS2 Is Required for Complete Blockade of SARS-CoV-2 Entry into Cells” (Antimicrobial Agents and Chemotherapy, 2022).
# Like-named read-outs stand apart in the source and are kept apart here.
# Tests used:
# Assay type in all cases: cell-based
# SARS-CoV-2 PsV D614G [1] = details: read-out: IC50, inhibition of PsV entry
# SARS-CoV-2 PsV D614G [2] = details: read-out: IC50, inhibition of PsV entry; remark: listed apart in the source
# [3] = tested on: SARS-CoV-2 PsV B.1.1.529 (Omicron); test: microbe, parasite or virus in culture; details: Omicron variant, Vero-TMPRSS2 cells
smiles,measurement,setting,value
CN(C)C(=O)COC(=O)Cc1ccc(OC(=O)c2ccc(NC(=N)N)cc2)cc1 [Camostat],IC50,SARS-CoV-2 PsV D614G [1],> 300000 nM
same,IC50,SARS-CoV-2 PsV D614G [2],199 nM
same,inhibition of PsV entry (in words),[3],unable to inhibit
